This is an account of results in patent US8114453B2, “Synergistically heat stable oil media having eicosa pentanoic acid (EPA) and docosa hexaenoic acid (DHA)” (Recon Oil Industries Private Limited, priority 2005, dated 2012).

The conditions of data set [1]: clinical trial, reported in background; cited from earlier work.
The nature of data set [2]: Fatty acid composition of oils before and after heating (air incorporated by stirring) by Gas Liquid Chromatography. In kind it is physicochemical. As to conditions: from the fish oil source, heated with air incorporated. The source says:
The heat stability of the highly unsaturated and easily oxidisable EPA/DHA in the oil blend of the invention, EPA/DHA from available sources of enriched fish oil was blended with groundnut oil in various proportions and the stability of the formulations tested is importantly to further confirm the unexpected and synergistic heat stability achieved by the oil formulation of the invention incorporating the EPA/DHA, oil blends with varying amount of active benefit agent EPA/DHA heated from ambient to upto 220 deg.C were tested. To maximize the process of deterioration, apart from heating at 180 deg.C, 200 deg.C and 220 deg. C., air was incorporated during heating by using a magnetic stirrer.

Consider `CC/C=C\C/C=C\C/C=C\CCCCCCCC(=O)O` [ALNA, Alpha linolenic acid], for which, in data set [1], the “Effect on triglyceride levels” value was “not effective to reduce triglyceride levels”.

Consider `CC/C=C\C/C=C\C/C=C\C/C=C\C/C=C\C/C=C\CCC(=O)O` [DHA, Docosa Hexaenoic Acid], for which the “Heat stability of the fatty acid” value in data set [2] is “heat stable even at temperatures of up to 220 deg. C”. As to `CC/C=C\C/C=C\C/C=C\C/C=C\C/C=C\CCCC(=O)O` [EPA, Eicosa Pentaenoic Acid], in data set [2], the “Heat stability of the fatty acid” value is recorded as “heat stable even at temperatures of up to 220 deg. C”.
